Laboratory results published in patent US20240132475A1, “SUBSTITUTED PYRAZOLYL COMPOUNDS AS MALT-1 INHIBITORS” (AURIGENE ONCOLOGY LIMITED, priority 2021, published 2024).

Target: T1, MALT-1 (Isoform 1) (Homo sapiens, UniProt Q9UDY8)
T1 construct: using recombinant MALT-1 (Isoform 1, aa-840) generated in house; made in house
T1 sequence (Q9UDY8 1-824): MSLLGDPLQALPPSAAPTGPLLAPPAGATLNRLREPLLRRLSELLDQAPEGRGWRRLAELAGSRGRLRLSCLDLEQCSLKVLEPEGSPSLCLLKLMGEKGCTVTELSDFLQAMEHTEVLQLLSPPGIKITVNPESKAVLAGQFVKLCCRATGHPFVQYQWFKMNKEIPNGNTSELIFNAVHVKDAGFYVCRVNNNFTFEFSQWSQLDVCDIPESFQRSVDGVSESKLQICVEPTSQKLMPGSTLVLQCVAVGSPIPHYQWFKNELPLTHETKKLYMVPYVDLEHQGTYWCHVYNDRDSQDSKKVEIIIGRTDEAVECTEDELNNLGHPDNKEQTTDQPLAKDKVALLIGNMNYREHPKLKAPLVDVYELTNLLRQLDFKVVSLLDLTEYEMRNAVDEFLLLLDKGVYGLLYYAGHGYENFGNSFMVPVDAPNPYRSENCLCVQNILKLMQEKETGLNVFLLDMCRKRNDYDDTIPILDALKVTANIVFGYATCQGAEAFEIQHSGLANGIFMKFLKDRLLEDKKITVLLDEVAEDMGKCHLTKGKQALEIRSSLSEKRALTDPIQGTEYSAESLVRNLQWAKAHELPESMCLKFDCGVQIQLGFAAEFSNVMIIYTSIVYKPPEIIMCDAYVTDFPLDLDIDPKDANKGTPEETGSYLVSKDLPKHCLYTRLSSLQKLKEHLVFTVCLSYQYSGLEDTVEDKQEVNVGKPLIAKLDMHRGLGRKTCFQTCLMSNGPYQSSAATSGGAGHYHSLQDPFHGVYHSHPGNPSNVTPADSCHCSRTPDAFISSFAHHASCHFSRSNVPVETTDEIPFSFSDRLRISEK
Assay: MALT-1 (Isoform 1) enzyme fluorescent biochemical assay
Conditions: for IC50: dose-response, sigmoidal curve fit, reported as groups A, B, C; for inhibition at 1 µM / Percent Inhibition (1 μM): test compound 1 μM; for inhibition at 1 µM / Percent Inhibition (1 μM) / inhibition at 10 µM: recombinant MALT-1 1.5 nM; for inhibition at 1 µM: read-out: Percent Inhibition (1 μM); for inhibition at 10 µM: test compound 10 μM (stated in the cell), read-out: Percent Inhibition (10 μM)
Experimental: The potency of compounds to inhibit MALT-1 (Isoform 1) enzyme was tested in a Fluorescent assay using recombinant MALT-1 (Isoform 1, aa-840) generated in house. The assay buffer was 50 mM HEPES (pH 7.5), 100 mM NaCl, 10 mM DTT, 1 mM EDTA, 0.9 M sodium citrate, 0.01% CHAPS. 1.5 nM of MALT-1 enzyme was incubated with test compounds ([…]) (1% DMSO) in the presence of buffer for 30 minutes at 30° C. The protease reaction was initiated by adding […] of AC-LRSR-MAC (Peptide International, USA) substrate and incubated for 240 min. After 240 min incubation, fluorescence emission of the samples at 460 nm was measured at an excitation of 355 nm. The percent inhibition was calculated using the following formula: […]. IC50 values were determined by fitting the dose-response data to sigmoidal curve fitting equation using Graph pad prism software V8.
ND represents Not Determined.

IC50 [nM]	inhibition at 1 µM [%]	Percent Inhibition (1 μM) [%]	inhibition at 10 µM [%]	SMILES
< 250		99		CC(c1ccccc1)n1ncc(C(=O)Nc2cnc(-n3nccn3)c(C#N)c2)c1C(F)(F)F (single isomer, unassigned) [Compound 2a]
251 to 1000		57		CC(c1ccccc1)n1ncc(C(=O)Nc2cnc(-n3nccn3)c(C#N)c2)c1C(F)(F)F (single isomer, unassigned) [Compound 2b]
251 to 1000		76		CC(c1cccc(F)c1)n1ncc(C(=O)Nc2cnc(-n3nccn3)c(C#N)c2)c1C(F)(F)F (single isomer, unassigned) [Compound 3a]
< 250		100		CC(c1cccc(F)c1)n1ncc(C(=O)Nc2cnc(-n3nccn3)c(C#N)c2)c1C(F)(F)F (single isomer, unassigned) [Compound 3b]
> 1000			83	CC(c1cccc(F)c1)n1ncc(C(=O)Nc2cnc(-n3nccn3)c(Cl)c2)c1C(F)(F)F (single isomer, unassigned) [Compound 4a]
< 250	94			CC(c1cccc(F)c1)n1ncc(C(=O)Nc2cnc(-n3nccn3)c(Cl)c2)c1C(F)(F)F (single isomer, unassigned) [Compound 4b]
251 to 1000		78		CC(c1ccccc1)n1ncc(C(=O)Nc2cnc(-n3nccn3)c(Cl)c2)c1C(F)(F)F (single isomer, unassigned) [Compound 5a]
< 250		99		CC(c1ccccc1)n1ncc(C(=O)Nc2cnc(-n3nccn3)c(Cl)c2)c1C(F)(F)F (single isomer, unassigned) [Compound 5b]

The next lines start with the compound.

SMILES	IC50 [nM]	inhibition at 1 µM [%]	Percent Inhibition (1 μM) [%]	inhibition at 10 µM [%]
CC(c1ccccc1)n1ncc(C(=O)Nc2cnc(-n3nccn3)c(C#N)c2)c1C(F)(F)F (racemic) [Compound 2, N-(5-cyano-6-(2H-1,2,3-triazol-2-yl)pyridin-3-yl)-1-(1-phenylethyl)-5-(trifluoromethyl)-1H-pyrazole-4-carboxamide]	< 250	96		
CC(c1cccc(F)c1)n1ncc(C(=O)Nc2cnc(-n3nccn3)c(C#N)c2)c1C(F)(F)F (racemic) [Compound 3, N-(5-cyano-6-(2H-1,2,3-triazol-2-yl)pyridin-3-yl)-1-(1-(3-fluorophenyl)ethyl)-5-(trifluoromethyl)-1H-pyrazole-4-carboxamide]	< 250	83		
CC(c1cccc(F)c1)n1ncc(C(=O)Nc2cnc(-n3nccn3)c(Cl)c2)c1C(F)(F)F (racemic) [Compound 4, N-(5-chloro-6-(2H-1,2,3-triazol-2-yl)pyridin-3-yl)-1-(1-(3-fluorophenyl)ethyl)-5-(trifluoromethyl)-1H-pyrazole-4-carboxamide]	251 to 1000	77		
CC(c1ccccc1)n1ncc(C(=O)Nc2cnc(-n3nccn3)c(Cl)c2)c1C(F)(F)F (racemic) [Compound 5, N-(5-chloro-6-(2H-1,2,3-triazol-2-yl)pyridin-3-yl)-1-(1-phenylethyl)-5-(trifluoromethyl)-1H-pyrazole-4-carboxamide]	251 to 1000	89		
N#Cc1cc(NC(=O)c2cnn(Cc3cccc(F)c3Cl)c2C(F)(F)F)cnc1-n1nccn1 [Compound 1, 1-(2-chloro-3-fluorobenzyl)-N-(5-cyano-6-(2H-1,2,3-triazol-2-yl)pyridin-3-yl)-5-(trifluoromethyl)-1H-pyrazole-4-carboxamide]	< 250	100		
CCC(c1cccc(F)c1)n1ncc(C(=O)Nc2cnc(-n3nccn3)c(C#N)c2)c1C(F)(F)F (stereo not drawn) [Compound 6, N-(5-cyano-6-(2H-1,2,3-triazol-2-yl)pyridin-3-y1)-1-(1-(3-fluorophenyl)propyl)-5-(trifluoromethyl)-1H-pyrazole-4-carboxamide]	251 to 1000	81		
N#Cc1cc(NC(=O)c2cnn(Cc3ccccc3)c2C(F)(F)F)cnc1-n1nccn1 [Compound 7, 1-benzyl-N-(5-cyano-6-(2H-1,2,3-triazol-2-yl)pyridin-3-y1)-5-(trifluoromethyl)-1H-pyrazole-4-carboxamide]	251 to 1000	88		
N#Cc1cc(NC(=O)c2cnn(Cc3cccc(Cl)c3)c2C(F)(F)F)cnc1-n1nccn1 [Compound 8, 1-(3-chlorobenzyl)-N-(5-cyano-6-(2H-1,2,3-triazol-2-y1)pyridin-3-yl)-5-(trifluoromethyl)-1H-pyrazole-4-carboxamide]	< 250	87		
N#Cc1cc(NC(=O)c2cnn(Cc3ccc(Cl)cc3)c2C(F)(F)F)cnc1-n1nccn1 [Compound 9, 1-(4-chlorobenzyl)-N-(5-cyano-6-(2H-1,2,3-triazol-2-y1)pyridin-3-yl)-5-(trifluoromethyl)-1H-pyrazole-4-carboxamide]	251 to 1000	55		
N#Cc1cc(NC(=O)c2cnn(Cc3ccc(F)cc3)c2C(F)(F)F)cnc1-n1nccn1 [Compound 10, N-(5-cyano-6-(2H-1,2,3-triazol-2-yl)pyridin-3-yl)-1-(4-fluorobenzyl)-5-(trifluoromethyl)-1H-pyrazole-4-carboxamide]	> 1000	44		
N#Cc1cccc(Cn2ncc(C(=O)Nc3cnc(-n4nccn4)c(C#N)c3)c2C(F)(F)F)c1 [Compound 12, N-(5-cyano-6-(2H-1,2,3-triazol-2-yl)pyridin-3-y1)-1-(3-cyanobenzyl)-5-(trifluoromethyl)-1H-pyrazole-4-carboxamide]	< 250	98		
N#Cc1cc(NC(=O)c2cnn(Cc3ccncc3)c2C(F)(F)F)cnc1-n1nccn1 [Compound 13, N-(5-cyano-6-(2H-1,2,3-triazol-2-yl)pyridin-3-yl)-1-(pyridin-4-ylmethyl)-5-(trifluoromethyl)-1H-pyrazole-4-carboxamide]	> 1000	40		
N#Cc1cc(NC(=O)c2cnn(Cc3cccc(C(F)(F)F)c3)c2C(F)(F)F)cnc1-n1nccn1 [Compound 14, N-(5-cyano-6-(2H-1,2,3-triazol-2-yl)pyridin-3-y1)-5-(trifluoromethyl)-1-(3-(trifluoromethyl)benzyl)-1H-pyrazole-4-carboxamide]	> 1000	67		
N#Cc1cc(NC(=O)c2cnn(Cc3cccc(F)c3)c2C(F)(F)F)cnc1-n1nccn1 [Compound 15, N-(5-cyano-6-(2H-1,2,3-triazol-2-yl)pyridin-3-y1)-1-(3-fluorobenzy1)-5-(trifluoromethyl)-1H-pyrazole-4-carboxamide]	< 250	99		
COc1cccc(Cn2ncc(C(=O)Nc3cnc(-n4nccn4)c(C#N)c3)c2C(F)(F)F)c1 [Compound 17, N-(5-cyano-6-(2H-1,2,3-triazol-2-yl)pyridin-3-y1)-1-(3-methoxybenzyl)-5-(trifluoromethyl)-1H-pyrazole-4-carboxamide]				48
N#Cc1cc(NC(=O)c2cnn(Cc3cccnc3)c2C(F)(F)F)cnc1-n1nccn1 [Compound 18, N-(5-cyano-6-(2H-1,2,3-triazol-2-yl)pyridin-3-yl)-1-(pyridin-3-ylmethyl)-5-(trifluoromethyl)-1H-pyrazole-4-carboxamide]	> 1000	47		
O=C(Nc1ccnc(C(F)(F)F)c1)c1cnn(Cc2cccc(F)c2)c1C(F)(F)F [Compound 19, 1-(3-fluorobenzyl)-5-(trifluoromethyl)-N-(2-(trifluoromethyl)pyridin-4-yl)-1H-pyrazole-4-carboxamide]	> 1000	22		
N#Cc1cc(NC(=O)c2cnn(Cc3ccccc3Cl)c2C(F)(F)F)cnc1-n1nccn1 [Compound 20, 1-(2-chlorobenzyl)-N-(5-cyano-6-(2H-1,2,3-triazol-2-y1)pyridin-3-yl)-5-(trifluoromethyl)-1H-pyrazole-4-carboxamide]	> 1000	46		
